In brackets after ≈: the same amount, converted by molar mass. Entries after “also recorded” stand apart in the source; their conditions may differ. Where two headings read alike, the source gives them in different places.
Columns and labels:
[1] = system: rat skeletal myoblast cell line L6; design: method as in PMID 30975502; details: ref [15], read-out: IC50 cytotoxicity; cited from earlier work
S. aureus ATCC 25923 [2] = details: Staphylococcus aureus ATCC 25923; ref [15]; cited from earlier work
[3] = system: HEK293 (human embryonic kidney cells); details: human embryonic kidney cell line HEK293; ref [15]; read-out: IC50 cytotoxicity; cited from earlier work
P. aeruginosa ATCC 27853 [4] = details: Pseudomonas aeruginosa; result in words; ref [15]; cited from earlier work
Cryptococcus neoformans = system: Cryptococcus neoformans; design: method as in PMID 30975502; details: fungus Cryptococcus neoformans; ref [15]; cited from earlier work
C. albicans ATCC 90028 = assay: Antifungal susceptibility (MIC), C. albicans; type: cell-based; details: Candida albicans, ATCC90028, mean (n = 2)
Outline: (§1)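 MICs against E. coli ATCC 25922 and P. aeruginosa ATCC 27853 followed previously reported protocols. MRSA ATCC 43300 and C. albicans ATCC 90028 were tested by CO-ADD under its standard protocols.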

MRSA ATCC 43300 = assay: Antimicrobial susceptibility (MIC), MRSA; type: cell-based; details: Staphylococcus aureus; MRSA ATCC 43300; mean (n = 2); read-out: MIC MRSA
Outline: as §1

P. aeruginosa ATCC 27853 [5] = assay: Antibiotic potentiation (MIC of antibiotics in the presence of synergizing compounds), P. aeruginosa; type: cell-based, Pseudomonas aeruginosa; details: concentration required to restore doxycycline activity at 2 µg/mL (4.5 µM) against P. aeruginosa ATCC 27853
[6] = system: HEK293 (human embryonic kidney cells); assay: Cytotoxicity assay HEK293; type: cell-based; details: mean (n = 2)
Procedure: (§2) Cytotoxicity assays were conducted according to previously reported protocols.

[7] = Cytotoxicity assay HEK293; type: cell-based, human; details: human, HEK293 cells, mean (n = 2), read-out: Cyto. IC50 (concentration of compound at 50% cytotoxicity)
Procedure: as §2

E. coli ATCC 25922 = assay: Antimicrobial susceptibility (MIC), E. coli; type: cell-based; details: Escherichia coli, ATCC25922, mean (n = 3)
Outline: as §1

P. aeruginosa ATCC 27853 [8] = assay: Antimicrobial susceptibility (MIC), P. aeruginosa; type: cell-based; details: Pseudomonas aeruginosa, ATCC27853, mean (n = 3), read-out: MIC P. a
Outline: as §1

S. aureus ATCC 25923 [9] = assay: Antimicrobial susceptibility (MIC), S. aureus; type: cell-based, Staphylococcus aureus; details: Staphylococcus aureus, ATCC25923; S. aureus ATCC 25923; mean (n = 3)

MIC (C. albicans ATCC 90028) [µM] | MIC (MRSA ATCC 43300) [µM] | MIC (E. coli ATCC 25922) [µM] | MIC (P. aeruginosa ATCC 27853 [8]) [µM] | MIC (S. aureus ATCC 25923 [9]) [µM] | Compound | IC50 [1] [µM] | MIC (S. aureus ATCC 25923 [2]) [µM] | IC50 [3] [µM] | antibiotic enhancement in combination with doxycycline (P. aeruginosa ATCC 27853 [4]) | MIC (Cryptococcus neoformans) [µM] | Conc (µM) for Potentiation of doxycycline (P. aeruginosa ATCC 27853 [5]) [µM] | Cyto. IC50 (concentration of compound at 50% cytotoxicity) [6] | IC50 [7] [µM]
 |  |  |  |  | O=C(NCCCNCCCCNCCCNC(=O)C(=O)c1c[nH]c2cc(Br)ccc12)C(=O)c1c[nH]c2cc(Br)ccc12 [Compound 1] | 7.7 | 6.25 (≈ 4.39 µg/mL) | 5.1 | strong antibiotic enhancement effect | 1.1 (≈ 0.773 µg/mL) |  |  | 
> 37 | ≤ 0.29 | 29 | > 230 | 7.3 | Cc1cccc2c(C(=O)C(=O)NCCCNCCCCCCCCNCCCNC(=O)C(=O)c3c[nH]c4c(C)cccc34)c[nH]c12.O=C(O)C(F)(F)F.O=C(O)C(F)(F)F [Compound 23c, N^1,N^8-Bis(3-(2-(7-methyl-1H-indol-3-yl)-2-oxoacetamido)propyl)octane-1,8-diaminium 2,2,2-trifluoroacetate] |  |  |  |  |  | 230 | non-cytotoxic; also recorded: no detectable cytotoxicity | > 37

Reference: article PMC10302047, “Structure–Activity Relationship Studies of Indolglyoxyl-Polyamine Conjugates as Antimicrobials and Antibiotic Potentiators” (Pharmaceuticals, 2023)
